Test results: US20170121315A1, “HETEROBICYCLICALLY SUBSTITUTED 4-OXOBUTANE ACID DERIVATIVES AND USE THEREOF” (priority 2014, published 2017)

Columns and labels:
Type in all cases: biochemical
MMP-7 = molecular target: T1, MMP-7 (Homo sapiens, UniProt P09237); test: In vitro MMP-7 inhibition test; conditions: human MMP-7
T1 construct: purchased R&D Systems 907-MP
T1 sequence (P09237 95-267): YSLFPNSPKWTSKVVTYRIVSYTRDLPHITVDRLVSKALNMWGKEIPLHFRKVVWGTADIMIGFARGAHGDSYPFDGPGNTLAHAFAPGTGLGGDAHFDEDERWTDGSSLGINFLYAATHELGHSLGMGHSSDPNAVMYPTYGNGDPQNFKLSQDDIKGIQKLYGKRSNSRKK
Description: (§1) The MMP-mediated amidolytic cleavage of a suitable peptide substrate leads to an increase in fluorescent light here too. The signal intensity of the fluorescent light is directly proportional to the enzyme activity. The active concentration of a test compound at which half the enzyme is inhibited (50% signal intensity of the fluorescent light) is reported as the IC50 value.
(§2) Recombinant MMP-7 (from R&D Systems, 907-MP) is chemically activated in accordance with the manufacturer's instructions using APMA. 1 μl of the test compound to be analysed (as a solution in DMSO, suitable concentrations e.g. 1 nM to 30 μM) is pipetted into 24 μl of activated enzyme (final concentration e.g. 0.5 nM) in reaction buffer (50 mM Tris/HCl pH 7.5, 10 mM CaCl2, 150 mM NaCl, 0.05% Brij®-35) in a white 384-hole microtiter plate (MTP). The enzymatic reaction is started by adding the intramolecularly quenched Mca-Pro-Leu-Gly-Leu-Dpa(Dnp)-Ala-Arg-NH2 substrate (final concentration e.g. 10 μM; R&D Systems, ES-001), so as to result in a total test volume of 50 μl. The course of the MMP-7 reaction is measured by measuring the fluorescence intensity (excitation 320 nm, emission 410 nm) over a suitable period of time (e.g. over 120 min at a temperature of 32° C.).

[1] = molecular target: T2, human macrophage elastase (HME/hMMP-12) (Homo sapiens, UniProt P39900); test: In vitro HME inhibition test (standard or high-sensitivity); conditions: in some cases mean values, rounded to two significant figures
T2 construct: purchased R&D Systems 917-MP
Method in brief: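 Autoactivated HME (0.5 nM; high-sensitivity format 0.05 nM, ~16 h) with 5 μM quenched Mca-PLGLEEA-Dap(Dnp)-NH2 substrate in HEPES pH 7.4, NaCl, CaCl2, ZnCl2, EDTA, Brij buffer, 2 h at 37° C. Fluorescence at ex 323/em 393 nm; IC50 from signal versus concentration.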

MMP-9 = molecular target: T3, MMP-9 (Homo sapiens, UniProt P14780); test: In vitro MMP-9 inhibition test; conditions: human MMP-9
T3 construct: purchased R&D Systems 911-MP
Description: as §1
as §2, with “MMP-9 (R&D” for “MMP-7 (from R&D”, “911-MP)” for “907-MP)”, “0.1” for “0.5”, “MMP-9” for “MMP-7”

MMP-14 = molecular target: T4, MMP-14 (Homo sapiens, UniProt P50281); test: In vitro MMP-14 inhibition test; conditions: human MMP-14
T4 construct: purchased R&D Systems 918-MP
Description: as §1
Recombinant MMP-14 (R&D Systems, 918-MP) is enzymatically activated in accordance with the manufacturer's instructions using recombinant furin (R&D Systems, 1503-SE). 1 μl of the test compound to be analysed (as a solution in DMSO, suitable concentrations e.g. 1 nM to 30 μM) is pipetted into 24 μl of activated enzyme (final concentration e.g. 0.5 nM) in reaction buffer (50 mM Tris/HCl pH 7.5, 10 mM CaCl2, 150 mM NaCl, 0.05% Brij®-35) in a white 384-hole microtiter plate (MTP). The enzymatic reaction is started by adding the intramolecularly quenched Mca-Lys-Pro-Leu-Gly-Leu-Dpa(Dnp)-Ala-Arg-NH2 substrate (final concentration e.g. 5 μM; R&D Systems, ES-010), so as to result in a total test volume of 50 μl. The course of the MMP-14 reaction is measured by measuring the fluorescence intensity (excitation 320 nm, emission 410 nm) over a suitable period of time (e.g. over 120 min at a temperature of 32° C.).

T3 sequence (P14780 107-707 limits assumed): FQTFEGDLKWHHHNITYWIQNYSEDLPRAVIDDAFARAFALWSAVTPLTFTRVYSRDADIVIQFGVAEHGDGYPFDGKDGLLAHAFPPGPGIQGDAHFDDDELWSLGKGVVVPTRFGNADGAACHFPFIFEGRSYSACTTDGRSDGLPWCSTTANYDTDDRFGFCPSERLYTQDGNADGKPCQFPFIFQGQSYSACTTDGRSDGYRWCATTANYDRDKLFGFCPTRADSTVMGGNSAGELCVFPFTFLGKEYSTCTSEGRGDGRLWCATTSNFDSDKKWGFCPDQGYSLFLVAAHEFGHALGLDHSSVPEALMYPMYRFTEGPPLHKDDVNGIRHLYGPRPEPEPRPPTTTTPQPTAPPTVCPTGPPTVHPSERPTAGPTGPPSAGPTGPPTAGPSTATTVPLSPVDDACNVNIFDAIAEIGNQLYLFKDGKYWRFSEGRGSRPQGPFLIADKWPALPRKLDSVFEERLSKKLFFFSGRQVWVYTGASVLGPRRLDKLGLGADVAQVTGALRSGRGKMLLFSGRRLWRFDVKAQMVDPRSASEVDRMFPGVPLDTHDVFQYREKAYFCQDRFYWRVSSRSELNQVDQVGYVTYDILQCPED
T2 sequence (P39900 106-470): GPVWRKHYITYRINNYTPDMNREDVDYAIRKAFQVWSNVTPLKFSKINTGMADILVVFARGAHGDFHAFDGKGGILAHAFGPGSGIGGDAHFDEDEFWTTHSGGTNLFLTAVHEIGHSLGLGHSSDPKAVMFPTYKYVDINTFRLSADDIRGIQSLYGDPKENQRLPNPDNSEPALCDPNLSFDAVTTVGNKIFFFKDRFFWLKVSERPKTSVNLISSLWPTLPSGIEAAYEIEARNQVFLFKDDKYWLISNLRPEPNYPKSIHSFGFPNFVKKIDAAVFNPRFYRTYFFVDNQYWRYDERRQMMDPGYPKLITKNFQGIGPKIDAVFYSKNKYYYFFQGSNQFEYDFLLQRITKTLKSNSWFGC

SMILES | IC50 (MMP-7) [nM] | IC50 [1] [nM] | IC50 (MMP-9) [nM] | IC50 (MMP-14) [nM]
O=C(CC(CCn1nnc2ccccc2c1=O)C(=O)O)c1cc2cc(OCCc3ccccc3)ccc2o1 (single isomer, unassigned; (+)) [Example 21, (+)-4-Oxo-2-[2-(4-oxo-1,2,3-benzotriazin-3(4H)-yl)ethyl]-4-[5-(2-phenylethoxy)-1-benzofur-2-yl]butanoic acid] | > 40000 | 2.2 | 5600 | 30000
O=C(CC(CCn1nnc2ccccc2c1=O)C(=O)O)c1cc2cc(OCc3ccccc3)ccc2o1 (single isomer, unassigned; (+)) [Example 30, (+)-4-[5-(Benzyloxy)-1-benzofur-2-yl]-4-oxo-2-[2-(4-oxo-1,2,3-benzotriazin-3(4H)-yl)ethyl]butanoic acid] | > 40000 | 0.99 | 27000 | 31000
O=C(CC(CCn1nnc2ccccc2c1=O)C(=O)O)c1coc2cc(OCC3CCCC3)ccc12 (single isomer, unassigned; (+)) [Example 80, (+)-4-[6-(Cyclopentylmethoxy)-1-benzofur-3-yl]-4-oxo-2-[2-(4-oxo-1,2,3-benzotriazin-3(4H)-yl)ethyl]butanoic acid] | > 40000 | 0.46 | 280 | 1900
O=C(CC(CCn1nnc2ccccc2c1=O)C(=O)O)c1coc2cc(OCC3CCCCC3)ccc12 (single isomer, unassigned; (+)) [Example 82, (+)-4-[6-(Cyclohexylmethoxy)-1-benzofur-3-yl]-4-oxo-2-[2-(4-oxo-1,2,3-benzotriazin-3(4H)-yl)ethyl]butanoic acid] | > 40000 | 0.089 | 94 | 2500
CCCCCCOc1ccc2c(C(=O)CC(CCn3nnc4ccccc4c3=O)C(=O)O)coc2c1 (single isomer, unassigned; (+)) [Example 100, (+)-4-[6-(Hexyloxy)-1-benzofur-3-yl]-4-oxo-2-[2-(4-oxo-1,2,3-benzotriazin-3(4H)-yl)ethyl]butanoic acid] | > 40000 | 0.18 | 74 | 4000
O=C(CC(CCn1nnc2ccccc2c1=O)C(=O)O)c1cc2ccc(OCC3CC3)cc2s1 (single isomer, unassigned; (+)) [Example 112, (+)-4-[6-(Cyclopropylmethoxy)-1-benzothiophen-2-yl]-4-oxo-2-[2-(4-oxo-1,2,3-benzotriazin-3(4H)-yl)ethyl]butanoic acid] | 3200 | 2.2 | 590 | 2800
O=C(CC(CCn1nnc2ccccc2c1=O)C(=O)O)c1cc2cc(OCCCC(F)(F)F)ccc2o1 (single isomer, unassigned; enantiomer 2) [Example 13, (+)-4-Oxo-2-[2-(4-oxo-1,2,3-benzotriazin-3(4H)-yl)ethyl]-4-[5-(4,4,4-trifluorobutoxy)-1-benzofur-2-yl]butanoic acid (enantiomer 2)] | > 40000 | 6.1 | 3800 | 17000
O=C(C[C@H](CCn1nnc2ccccc2c1=O)C(=O)O)c1noc2cc(OCC3CCOCC3)ccc12 (single isomer, unassigned; enantiomer 2) [Example 135] | > 40000 | 0.16 | 1700 | 3500

Results, then the molecule that gave them:

IC50 (MMP-7) [nM] | IC50 [1] [nM] | IC50 (MMP-9) [nM] | IC50 (MMP-14) [nM] | SMILES
> 40000 | 0.81 | 13000 | 15000 | O=C(CC(CCn1nnc2ccccc2c1=O)C(=O)O)c1cc2cc(OCc3ccc(F)cc3)ccc2o1 (single isomer, unassigned; (+)) [Example 23, (+)-4-{5-[(4-Fluorobenzyl)oxy]-1-benzofur-2-yl}-4-oxo-2-[2-(4-oxo-1,2,3-benzotriazin-3(4H)-yl)ethyl]butanoic acid]
25000 | 1.1 | 38000 | 7900 | NC(=O)c1cccc(COc2ccc3oc(C(=O)CC(CCn4nnc5ccccc5c4=O)C(=O)O)cc3c2)c1 (single isomer, unassigned; (+)) [Example 34, (+)-4-{5-[(3-Carbamoylbenzyl)oxy]-1-benzofur-2-yl}-4-oxo-2-[2-(4-oxo-1,2,3-benzotriazin-3(4H)-yl)ethyl]butanoic acid]
> 40000 | 1 | 13000 | > 40000 | CCCCCCCOc1ccc2cc(C(=O)CC(CCn3nnc4ccccc4c3=O)C(=O)O)oc2c1 (single isomer, unassigned; (+)) [Example 69, (+)-4-[6-(Heptyloxy)-1-benzofur-2-yl]-4-oxo-2-[2-(4-oxo-1,2,3-benzotriazin-3(4H)-yl)ethyl]butanoic acid acid]
300 | 0.063 | 680 | 2600 | O=C(O)[C@@H]1[C@@H](Cn2nnc3ccc(C(F)(F)F)cc3c2=O)CC[C@H]1C(=O)c1cc2cc(OCCc3ccccc3)ccc2o1 (single isomer, unassigned; enantiomer 2) [Example 159, (+)-(1RS,2SR,5RS)-2-{[4-Oxo-6-(trifluoromethyl)-1,2,3-benzotriazin-3(4H)-yl]methyl}-5-{[5-(2-phenylethoxy)-1-benzofur-2-yl]carbonyl}cyclopentanecarboxylic acid (enantiomer 2)]
